ChEMBL document CHEMBL1201861, “Genomics of Drug Sensitity in Cancer screening data, Wellcome Trust Sanger Institute”

Experiments:
[1] = test system: COR-L279; assay: SANGER: Inhibition of human COR-L279 cell growth in a cell viability assay.; type: functional, cell-based; conditions: Homo sapiens, COR-L279
[2] = test system: DMS-273; assay: cells; type: functional, cell-based, Homo sapiens; conditions: Homo sapiens, DMS-273
Description: SANGER: Inhibition of human DMS-273 cell growth in a cell viability assay.

[3] = test system: EFO-27; assay: cells; type: functional, cell-based, Homo sapiens; conditions: Homo sapiens, EFO-27;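 also: growth inhibition of EFO-27 cells, read out with a cell viability assay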
Description: SANGER: Inhibition of human EFO-27 cell growth in a cell viability assay.

[4] = test system: FaDu; assay: cells; type: functional, cell-based, Homo sapiens; conditions: Homo sapiens, FaDu;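 also: cell viability readout of growth inhibition in FaDu cells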
Description: SANGER: Inhibition of human FADU cell growth in a cell viability assay.

[5] = test system: HCC1395; assay: cells; type: functional, cell-based, Homo sapiens; conditions: Homo sapiens, HCC1395;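 also: growth inhibition of HCC1395 cells, read out by a cell viability assay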
Description: SANGER: Inhibition of human HCC1395 cell growth in a cell viability assay.

[6] = test system: HCC1419; assay: cells; type: functional, cell-based, Homo sapiens; conditions: Homo sapiens, HCC1419;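 also: growth inhibition of human HCC1419 cells, read out as cell viability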
Description: SANGER: Inhibition of human HCC1419 cell growth in a cell viability assay.

[7] = test system: HTC-C3; assay: cells; type: functional, cell-based, Homo sapiens; conditions: Homo sapiens, HTC-C3;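 also: inhibition of cell growth, read out with a cell viability assay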
Description: SANGER: Inhibition of human HTC-C3 cell growth in a cell viability assay.

[8] = test system: J82; assay: cells; type: functional, cell-based, Homo sapiens; conditions: Homo sapiens, J82;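 also: growth inhibition of J82 cells, read out with a cell viability assay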
Description: SANGER: Inhibition of human J82 cell growth in a cell viability assay.

[9] = test system: JIYOYE; assay: cells; type: functional, cell-based, Homo sapiens; conditions: Homo sapiens, JIYOYE
Description: SANGER: Inhibition of human JiyoyeP-2003 cell growth in a cell viability assay.

[10] = test system: KU-19-19; assay: cells; type: functional, cell-based, Homo sapiens; conditions: Homo sapiens, KU-19-19
Description: SANGER: Inhibition of human KU-19-19 cell growth in a cell viability assay.

[11] = test system: LB647-SCLC; assay: cells; type: functional, cell-based, Homo sapiens; conditions: Homo sapiens, LB647-SCLC;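 also: cell growth inhibition, read out by a viability assay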
Description: SANGER: Inhibition of human LB647-SCLC cell growth in a cell viability assay.

[12] = test system: MHH-CALL-2; assay: cells; type: functional, cell-based, Homo sapiens; conditions: Homo sapiens, MHH-CALL-2;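 also: growth inhibition of the cell line, read out in a cell viability assay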
Description: SANGER: Inhibition of human MHH-CALL-2 cell growth in a cell viability assay.

[13] = test system: MRK-nu-1; assay: cells; type: functional, cell-based, Homo sapiens; conditions: Homo sapiens, MRK-nu-1;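 also: cell viability assay measuring growth suppression of human MRK-nu-1 cells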
Description: SANGER: Inhibition of human MRK-nu-1 cell growth in a cell viability assay.

[14] = test system: NALM-6; assay: cells; type: functional, cell-based, Homo sapiens; conditions: Homo sapiens, NALM-6;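 also: growth inhibition of NALM-6 cells, read out with a cell viability assay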
Description: SANGER: Inhibition of human NALM-6 cell growth in a cell viability assay.

[15] = test system: NCI-H1623; assay: cells; type: functional, cell-based, Homo sapiens; conditions: Homo sapiens, NCI-H1623;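 also: cell viability assay used as the read-out for growth inhibition of NCI-H1623 cells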
Description: SANGER: Inhibition of human NCI-H1623 cell growth in a cell viability assay.

[16] = test system: NCI-H2405; assay: cells; type: functional, cell-based, Homo sapiens; conditions: Homo sapiens, NCI-H2405;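 also: growth inhibition of the human cell line, read out with a cell viability assay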
Description: SANGER: Inhibition of human NCI-H2405 cell growth in a cell viability assay.

[17] = test system: NCI-H2452; assay: cells; type: functional, cell-based, Homo sapiens; conditions: Homo sapiens, NCI-H2452;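 also: growth inhibition of NCI-H2452 cells, read out with a cell viability assay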
Description: SANGER: Inhibition of human NCI-H2452 cell growth in a cell viability assay.

[18] = test system: NCI-H322M; assay: cells; type: functional, cell-based, Homo sapiens; conditions: Homo sapiens, NCI-H322M;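 also: cell viability assay measuring inhibition of growth of human NCI-H322M cells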
Description: SANGER: Inhibition of human NCI-H322M cell growth in a cell viability assay.

[19] = test system: NCI-H441; assay: cells; type: functional, cell-based, Homo sapiens; conditions: Homo sapiens, NCI-H441;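 also: growth inhibition of NCI-H441 cells, read out with a cell viability assay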
Description: SANGER: Inhibition of human NCI-H441 cell growth in a cell viability assay.

[20] = test system: NCI-H650; assay: cells; type: functional, cell-based, Homo sapiens; conditions: Homo sapiens, NCI-H650;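 also: growth inhibition of NCI-H650 cells, read out by a viability assay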
Description: SANGER: Inhibition of human NCI-H650 cell growth in a cell viability assay.

[21] = test system: NCI-H889; assay: cells; type: functional, cell-based, Homo sapiens; conditions: Homo sapiens, NCI-H889;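 also: cell growth inhibition of the cell line, read out with a viability assay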
Description: SANGER: Inhibition of human NCI-H889 cell growth in a cell viability assay.

[22] = test system: OE19; assay: cells; type: functional, cell-based, Homo sapiens; conditions: Homo sapiens, OE19;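 also: growth inhibition of OE19 cells, measured through a cell viability read-out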
Description: SANGER: Inhibition of human OE19 cell growth in a cell viability assay.

[23] = test system: P12-Ichikawa; assay: cells; type: functional, cell-based, Homo sapiens; conditions: Homo sapiens, P12-Ichikawa
[24] = test system: RD; assay: cells; type: functional, cell-based, Homo sapiens; conditions: Homo sapiens, RD
Description: SANGER: Inhibition of human RD cell growth in a cell viability assay.

[25] = test system: RERF-LC-MS; assay: cells; type: functional, cell-based, Homo sapiens; conditions: Homo sapiens, RERF-LC-MS;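 also: growth inhibition of human RERF-LC-MS cells, read out by a cell viability assay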
Description: SANGER: Inhibition of human RERF-LC-MS cell growth in a cell viability assay.

[26] = test system: SKG-IIIa; assay: cells; type: functional, cell-based, Homo sapiens; conditions: Homo sapiens, SKG-IIIa;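 also: cell growth inhibition, read out with a cell viability assay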
Description: SANGER: Inhibition of human SKG-IIIa cell growth in a cell viability assay.

[27] = test system: SNU-C1; assay: cells; type: functional, cell-based, Homo sapiens; conditions: Homo sapiens, SNU-C1;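 also: growth inhibition of SNU-C1 human cells, read out by a cell viability assay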
Description: SANGER: Inhibition of human SNU-C1 cell growth in a cell viability assay.

[28] = test system: ST486; assay: SANGER: Inhibition of human ST486 cell growth in a cell viability assay.; type: functional, cell-based; conditions: Homo sapiens, ST486
[29] = test system: SW1710; assay: cells; type: functional, cell-based, Homo sapiens; conditions: Homo sapiens, SW1710;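 also: growth inhibition of SW1710 cells, determined with a cell viability assay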
Description: SANGER: Inhibition of human SW1710 cell growth in a cell viability assay.

[30] = test system: SW48; assay: cells; type: functional, cell-based, Homo sapiens; conditions: Homo sapiens, SW48;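 also: growth inhibition of SW48 cells, read out with a cell viability assay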
Description: SANGER: Inhibition of human SW48 cell growth in a cell viability assay.

[31] = test system: SW626; assay: cells; type: functional, cell-based, Homo sapiens; conditions: Homo sapiens, SW626;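 also: growth inhibition of SW626 cells, measured with a cell viability assay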
Description: SANGER: Inhibition of human SW626 cell growth in a cell viability assay.

[32] = test system: SW948; assay: cells; type: functional, cell-based, Homo sapiens; conditions: Homo sapiens, SW948;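 also: growth inhibition of SW948 cells, read out with a cell viability assay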
Description: SANGER: Inhibition of human SW948 cell growth in a cell viability assay.

[33] = test system: SiHa; assay: cells; type: functional, cell-based, Homo sapiens; conditions: Homo sapiens, SiHa;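 also: Viability-based readout of growth inhibition in SiHa cells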
Description: SANGER: Inhibition of human SiHa cell growth in a cell viability assay.

[34] = test system: T-24; assay: cells; type: functional, cell-based, Homo sapiens; conditions: Homo sapiens, T-24;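 also: growth inhibition of T-24 cells, read out with a cell viability assay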
Description: SANGER: Inhibition of human T-24 cell growth in a cell viability assay.

[35] = test system: TCC-SUP; assay: cells; type: functional, cell-based, Homo sapiens; conditions: Homo sapiens, TCC-SUP;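 also: growth inhibition of TCC-SUP cells, read out with a cell viability assay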
Description: SANGER: Inhibition of human TCCSUP cell growth in a cell viability assay.

[36] = test system: 23132-87; assay: cells; type: functional, cell-based, Homo sapiens; conditions: Homo sapiens
Description: SANGER: Inhibition of human 23132-87 cell growth in a cell viability assay.

[37] = test system: 5637; assay: cells; type: functional, cell-based, Homo sapiens; conditions: Homo sapiens
Description: SANGER: Inhibition of human 5637 cell growth in a cell viability assay.

[38] = test system: 8305C; assay: cells; type: functional, cell-based, Homo sapiens; conditions: Homo sapiens, 8305C
Description: SANGER: Inhibition of human 8305C cell growth in a cell viability assay.

[39] = test system: AGS; assay: cells; type: functional, cell-based, Homo sapiens; conditions: Homo sapiens, AGS;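 also: growth inhibition of AGS cells, determined with a cell viability assay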
Description: SANGER: Inhibition of human AGS cell growth in a cell viability assay.

[40] = test system: ARH-77; assay: cells; type: functional, cell-based, Homo sapiens; conditions: Homo sapiens, ARH-77;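 also: growth inhibition of ARH-77 cells, read out by a cell viability assay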
Description: SANGER: Inhibition of human ARH-77 cell growth in a cell viability assay.

[41] = test system: BCPAP; assay: cells; type: functional, cell-based, Homo sapiens; conditions: Homo sapiens, BCPAP;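 also: growth inhibition of BCPAP cells, read out in a cell viability assay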
Description: SANGER: Inhibition of human BCPAP cell growth in a cell viability assay.

[42] = test system: BT-20; assay: cells; type: functional, cell-based, Homo sapiens; conditions: Homo sapiens, BT-20;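 also: cell viability assay measuring suppression of growth in human BT-20 cells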
Description: SANGER: Inhibition of human BT-20 cell growth in a cell viability assay.

[43] = test system: C3A; assay: cells; type: functional, cell-based, Homo sapiens; conditions: Homo sapiens, C3A;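 also: growth inhibition of C3A human cells, quantified with a cell viability readout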
Description: SANGER: Inhibition of human C3A cell growth in a cell viability assay.

[44] = test system: CAL-120; assay: cells; type: functional, cell-based, Homo sapiens; conditions: Homo sapiens, CAL-120;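 also: cell growth inhibition, read out as cell viability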
Description: SANGER: Inhibition of human CAL-120 cell growth in a cell viability assay.

[45] = test system: CAL-72; assay: cells; type: functional, cell-based, Homo sapiens; conditions: Homo sapiens, CAL-72;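 also: cell viability assay measuring inhibition of proliferation in the CAL-72 cell line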
Description: SANGER: Inhibition of human CAL-72 cell growth in a cell viability assay.

[46] = test system: CAPAN-1; assay: cells; type: functional, cell-based, Homo sapiens; conditions: Homo sapiens, CAPAN-1;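 also: growth suppression of CAPAN-1 cells, read out by a cell viability assay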
Description: SANGER: Inhibition of human CAPAN-1 cell growth in a cell viability assay.

In the case of CCC/C=C/C=C/C(=O)O[C@H]1/C(=C/C(=O)OC)C[C@H]2C[C@H]([C@@H](C)O)OC(=O)C[C@H](O)C[C@@H]3C[C@H](OC(C)=O)C(C)(C)[C@](O)(C[C@@H]4C/C(=C/C(=O)OC)C[C@H](/C=C/C(C)(C)[C@]1(O)O2)O4)O3 [BRYOSTATIN 1], the IC50 [1] is reported as > 8 nM, the IC50 [2] is reported as > 8 nM and the IC50 [3] is reported as > 8 nM. The IC50 [4] was > 8 nM, the IC50 [5] was > 8 nM and the IC50 [6] was > 8 nM. The IC50 [7] was > 8 nM, the IC50 [8] was > 8 nM and the IC50 [9] was > 8 nM. For the same molecule, the IC50 [10] was > 8 nM, the IC50 [11] was > 8 nM and the IC50 [12] was > 8 nM. The IC50 [13] was > 8 nM, the IC50 [14] was > 8 nM and the IC50 [15] was > 8 nM. For the same molecule, the IC50 [16] was > 8 nM, the IC50 [17] was > 8 nM and the IC50 [18] was > 8 nM. For the same molecule, the IC50 [19] was > 8 nM, the IC50 [20] was > 8 nM and the IC50 [21] was > 8 nM. For the same molecule, the IC50 [22] was > 8 nM, the IC50 [23] was > 8 nM and the IC50 [24] was > 8 nM. For the same molecule, the IC50 [25] was > 8 nM, the IC50 [26] was > 8 nM and the IC50 [27] was > 8 nM. The IC50 [28] was > 8 nM, the IC50 [29] was > 8 nM and the IC50 [30] was > 8 nM. The IC50 [31] was > 8 nM, the IC50 [32] was > 8 nM and the IC50 [33] was > 8 nM. The IC50 [34] was > 8 nM, the IC50 [35] was > 8 nM and the IC50 [36] was > 8 nM. The IC50 [37] was > 8 nM, the IC50 [38] was > 8 nM and the IC50 [39] was > 8 nM. The IC50 [40] was > 8 nM, the IC50 [41] was > 8 nM and the IC50 [42] was > 8 nM. For the same molecule, the IC50 [43] was > 8 nM, the IC50 [44] was > 8 nM and the IC50 [45] was > 8 nM. The IC50 [46] was > 8 nM.

In the case of COc1cccc2c1C(=O)c1c(O)c3c(c(O)c1C2=O)C[C@@](O)(C(=O)CO)C[C@@H]3O[C@H]1C[C@H](N)[C@H](O)[C@H](C)O1 [DOXORUBICIN], the IC50 [1] is reported as 56.9 nM, the IC50 [2] is reported as 78.9 nM and the IC50 [3] is reported as 97.4 nM. The IC50 [4] was 102 nM, the IC50 [5] was > 1020 nM and the IC50 [6] was 632 nM. It also gave an IC50 [7] of 704 nM, an IC50 [8] of 21.3 nM and an IC50 [9] of 138 nM. The IC50 [10] was > 1020 nM, the IC50 [11] was 123 nM and the IC50 [12] was 359 nM. The IC50 [13] was 43.7 nM, the IC50 [14] was 18.6 nM and the IC50 [15] was 605 nM. The IC50 [16] was 234 nM, the IC50 [17] was > 1020 nM and the IC50 [18] was > 1020 nM. The IC50 [19] was 28.4 nM, the IC50 [20] was 218 nM and the IC50 [21] was > 1020 nM. For the same molecule, the IC50 [22] was 200 nM, the IC50 [23] was 49.3 nM and the IC50 [24] was 180 nM. For the same molecule, the IC50 [25] was 425 nM, the IC50 [26] was 311 nM and the IC50 [27] was > 1020 nM. The IC50 [28] was 15.5 nM, the IC50 [29] was 17.4 nM and the IC50 [30] was 49.7 nM. For the same molecule, the IC50 [31] was 112 nM, the IC50 [32] was > 1020 nM and the IC50 [33] was > 1020 nM. For the same molecule, the IC50 [34] was 245 nM, the IC50 [35] was > 1020 nM and the IC50 [36] was 15.4 nM. For the same molecule, the IC50 [37] was 31.9 nM, the IC50 [38] was 63.1 nM and the IC50 [39] was 13.3 nM. For the same molecule, the IC50 [40] was 110 nM, the IC50 [41] was 52.5 nM and the IC50 [42] was > 1020 nM. The IC50 [43] was 416 nM, the IC50 [44] was 778 nM and the IC50 [45] was 841 nM. For the same molecule, the IC50 [46] was 51.8 nM.

With Nc1ccn([C@@H]2O[C@H](CO)[C@@H](O)C2(F)F)c(=O)n1 [GEMCITABINE] the IC50 [1] was 53.9 nM, the IC50 [2] was 3.07 nM and the IC50 [3] was 9.05 nM. The IC50 [4] was 105 nM, the IC50 [5] was > 1020 nM and the IC50 [6] was > 1020 nM. For the same molecule, the IC50 [7] was 996 nM, the IC50 [8] was 7.41 nM and the IC50 [9] was 39.4 nM. The IC50 [10] was > 1020 nM, the IC50 [11] was 1.18 nM and the IC50 [12] was 1020 nM. The IC50 [13] was 2.57 nM, the IC50 [14] was < 4 nM and the IC50 [15] was 187 nM. The IC50 [16] was 19.1 nM, the IC50 [17] was > 1020 nM and the IC50 [18] was > 1020 nM. The IC50 [19] was 5.6 nM, the IC50 [20] was 566 nM and the IC50 [21] was > 1020 nM. The IC50 [22] was 702 nM, the IC50 [23] was 84.7 nM and the IC50 [24] was 130 nM. For the same molecule, the IC50 [25] was 177 nM, the IC50 [26] was 810 nM and the IC50 [27] was > 1020 nM. For the same molecule, the IC50 [28] was 9.41 nM, the IC50 [29] was < 4 nM and the IC50 [30] was 463 nM. The IC50 [31] was 4.46 nM, the IC50 [32] was > 1020 nM and the IC50 [33] was > 1020 nM. The IC50 [34] was > 1020 nM, the IC50 [35] was > 1020 nM and the IC50 [36] was 43.1 nM. The IC50 [37] was > 1020 nM, the IC50 [38] was 9.64 nM and the IC50 [39] was < 4 nM. The IC50 [40] was < 4 nM, the IC50 [41] was 1.45 nM and the IC50 [42] was 182 nM. For the same molecule, the IC50 [43] was 8.84 nM, the IC50 [44] was 576 nM and the IC50 [45] was > 1020 nM. It also gave an IC50 [46] of 9.23 nM.
